Test results taken from US11299501B2 (BRISTOL-MYERS SQUIBB COMPANY, priority 2017, dated 2022).
pIC50: −log10 of the molar value.

Columns and labels:
Type in all cases: cell-based
human TLR7 = molecular target: T1, human TLR7 (Homo sapiens, UniProt Q9NYK1); assay: TLR7 inhibition reporter assay (HEK-Blue SEAP); settings: cells overexpressing human TLR7, SEAP reporter, stimulated with gardiquimod 7.5 μM, 22 hour incubation
T1 construct: host or cells: HEK-Blue cells
T1 sequence (Q9NYK1 27-1049): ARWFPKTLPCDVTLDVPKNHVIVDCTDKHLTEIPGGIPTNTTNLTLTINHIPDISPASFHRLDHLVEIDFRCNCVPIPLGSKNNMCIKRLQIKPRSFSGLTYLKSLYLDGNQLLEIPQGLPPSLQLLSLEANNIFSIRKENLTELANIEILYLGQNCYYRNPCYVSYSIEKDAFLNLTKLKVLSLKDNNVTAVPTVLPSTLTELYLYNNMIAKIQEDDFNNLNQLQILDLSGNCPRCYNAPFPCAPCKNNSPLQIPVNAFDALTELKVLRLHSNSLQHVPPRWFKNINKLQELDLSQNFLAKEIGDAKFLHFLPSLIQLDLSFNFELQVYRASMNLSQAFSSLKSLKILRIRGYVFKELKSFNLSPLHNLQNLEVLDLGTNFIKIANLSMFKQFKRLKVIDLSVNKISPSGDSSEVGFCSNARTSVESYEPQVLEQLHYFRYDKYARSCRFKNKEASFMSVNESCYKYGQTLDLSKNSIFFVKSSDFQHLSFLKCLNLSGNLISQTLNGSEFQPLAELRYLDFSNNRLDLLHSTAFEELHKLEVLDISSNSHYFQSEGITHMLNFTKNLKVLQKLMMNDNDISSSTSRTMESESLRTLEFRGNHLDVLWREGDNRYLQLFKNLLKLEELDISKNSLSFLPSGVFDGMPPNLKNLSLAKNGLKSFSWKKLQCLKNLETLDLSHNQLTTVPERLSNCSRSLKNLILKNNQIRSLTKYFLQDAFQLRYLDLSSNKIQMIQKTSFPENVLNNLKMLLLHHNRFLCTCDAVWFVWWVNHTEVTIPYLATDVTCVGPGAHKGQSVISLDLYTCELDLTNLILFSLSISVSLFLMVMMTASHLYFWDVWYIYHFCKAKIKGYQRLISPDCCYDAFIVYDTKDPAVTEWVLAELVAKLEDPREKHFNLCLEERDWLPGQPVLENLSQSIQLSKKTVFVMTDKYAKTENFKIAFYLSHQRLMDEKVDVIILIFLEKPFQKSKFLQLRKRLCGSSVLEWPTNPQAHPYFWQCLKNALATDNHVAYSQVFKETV
In short: (§1)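 HEK-Blue cells expressing human TLR7, TLR8 or TLR9 with NF-κB/AP-1-driven SEAP reporter pre-treated 30 min at room temperature with compound (0.05 nM–50 μM), then stimulated with gardiquimod 7.5 μM (TLR7), R848 15.9 μM (TLR8) or ODN2006 5 nM (TLR9). SEAP read after 22 h at 37 °C; % inhibition relative to agonist+DMSO and reference-inhibitor wells.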

human TLR8 = molecular target: T2, human TLR8 (Homo sapiens, UniProt Q9NR97); assay: TLR8 inhibition reporter assay (HEK-Blue SEAP); settings: cells overexpressing human TLR8, SEAP reporter, stimulated with R848 15.9 μM, 22 hour incubation
T2 construct: host or cells: HEK-Blue cells
T2 sequence (Q9NR97 27-1041): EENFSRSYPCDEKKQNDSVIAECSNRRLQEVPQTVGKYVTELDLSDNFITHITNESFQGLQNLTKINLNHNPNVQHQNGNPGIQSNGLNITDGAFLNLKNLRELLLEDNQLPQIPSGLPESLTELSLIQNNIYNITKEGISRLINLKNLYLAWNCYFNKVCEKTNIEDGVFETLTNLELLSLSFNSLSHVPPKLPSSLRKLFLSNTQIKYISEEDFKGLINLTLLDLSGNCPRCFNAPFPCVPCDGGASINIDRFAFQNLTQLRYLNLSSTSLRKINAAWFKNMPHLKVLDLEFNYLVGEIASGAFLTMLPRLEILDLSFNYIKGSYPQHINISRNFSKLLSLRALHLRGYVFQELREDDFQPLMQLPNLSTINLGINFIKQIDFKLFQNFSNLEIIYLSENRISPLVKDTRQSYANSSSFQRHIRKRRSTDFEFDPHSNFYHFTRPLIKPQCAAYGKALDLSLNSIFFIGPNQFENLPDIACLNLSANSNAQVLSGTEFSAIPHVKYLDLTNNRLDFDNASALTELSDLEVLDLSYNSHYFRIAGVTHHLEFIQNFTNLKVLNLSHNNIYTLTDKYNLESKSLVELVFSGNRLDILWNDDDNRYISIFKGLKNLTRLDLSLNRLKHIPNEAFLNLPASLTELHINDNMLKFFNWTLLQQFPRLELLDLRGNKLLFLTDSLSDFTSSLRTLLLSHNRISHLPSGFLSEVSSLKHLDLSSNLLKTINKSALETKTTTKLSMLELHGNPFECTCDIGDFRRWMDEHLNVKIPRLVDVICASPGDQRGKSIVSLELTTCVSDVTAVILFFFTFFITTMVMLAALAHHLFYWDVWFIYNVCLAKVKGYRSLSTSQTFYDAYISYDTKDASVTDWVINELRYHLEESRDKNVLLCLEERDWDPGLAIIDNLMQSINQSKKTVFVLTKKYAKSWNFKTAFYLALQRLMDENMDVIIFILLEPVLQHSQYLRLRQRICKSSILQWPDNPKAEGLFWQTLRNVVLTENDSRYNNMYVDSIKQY
In short: as §1

human TLR9 = molecular target: T3, human TLR9 (Homo sapiens, UniProt Q9NR96); assay: TLR9 inhibition reporter assay (HEK-Blue SEAP); settings: cells overexpressing human TLR9, SEAP reporter, stimulated with ODN2006 5 nM, 22 hour incubation
T3 construct: host or cells: HEK-Blue cells
T3 sequence (Q9NR96 26-1032): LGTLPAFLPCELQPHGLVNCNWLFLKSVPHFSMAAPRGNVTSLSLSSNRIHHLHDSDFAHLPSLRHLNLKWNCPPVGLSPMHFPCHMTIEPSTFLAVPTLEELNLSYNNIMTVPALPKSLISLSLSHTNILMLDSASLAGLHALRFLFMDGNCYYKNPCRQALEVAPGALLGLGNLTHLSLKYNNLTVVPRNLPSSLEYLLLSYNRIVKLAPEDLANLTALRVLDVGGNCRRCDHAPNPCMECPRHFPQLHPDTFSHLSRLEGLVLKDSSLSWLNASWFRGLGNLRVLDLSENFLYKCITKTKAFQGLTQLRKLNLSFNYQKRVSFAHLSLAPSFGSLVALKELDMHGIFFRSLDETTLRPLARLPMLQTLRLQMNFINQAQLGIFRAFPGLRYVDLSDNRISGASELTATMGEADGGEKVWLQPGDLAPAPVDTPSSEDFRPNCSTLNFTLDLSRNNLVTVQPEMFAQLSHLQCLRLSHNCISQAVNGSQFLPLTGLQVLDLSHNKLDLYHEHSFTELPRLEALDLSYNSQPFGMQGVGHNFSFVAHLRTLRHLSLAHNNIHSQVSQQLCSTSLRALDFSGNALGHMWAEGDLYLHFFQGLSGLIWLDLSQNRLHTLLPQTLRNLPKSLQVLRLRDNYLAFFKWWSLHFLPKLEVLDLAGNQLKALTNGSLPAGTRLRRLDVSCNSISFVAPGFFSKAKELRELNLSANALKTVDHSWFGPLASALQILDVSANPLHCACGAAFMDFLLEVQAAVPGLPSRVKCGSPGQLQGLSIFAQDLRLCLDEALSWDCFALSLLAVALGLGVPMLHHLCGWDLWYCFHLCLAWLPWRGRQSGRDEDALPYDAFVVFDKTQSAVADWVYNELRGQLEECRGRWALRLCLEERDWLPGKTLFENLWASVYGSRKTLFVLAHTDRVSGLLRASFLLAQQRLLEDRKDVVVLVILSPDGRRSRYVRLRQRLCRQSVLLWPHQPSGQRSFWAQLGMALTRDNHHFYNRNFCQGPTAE
In short: as §1

pIC50 (human TLR7) | pIC50 (human TLR8) | pIC50 (human TLR9) | SMILES
4.30 to 6.00 | 4.30 to 6.00 | 4.30 to 6.00 | CCc1c(-c2ccc(OC)c(OC)c2)[nH]c2cnc(-c3nnc([C@H]4CCNC4)o3)nc12 [Example 44, (S)-2-(6-(3,4-dimethoxyphenyl)-7-ethyl-5H-pyrrolo[3,2-d]pyrimidin-2-yl)-5-(pyrrolidin-3-yl)-1,3,4-oxadiazole]
< 4.30 | 4.30 to 6.00 | < 4.30 | CCc1c(-c2ccc(OC)c(OC)c2)[nH]c2cnc(-c3nnc(N)o3)nc12 [Example 53, 5-(6-(3,4-dimethoxyphenyl)-7-ethyl-5H-pyrrolo[3,2-d]pyrimidin-2-yl)-1,3,4-oxadiazol-2-amine]
6.00 to 7.00 | > 7.00 | 6.00 to 7.00 | CCc1c(-c2ccnc(C)c2)[nH]c2cnc(C3CCN(C4CCN(C(C)C)CC4)CC3)nc12 [Example 23, 7-ethyl-2-(1′-isopropyl-[1,4′-bipiperidin]-4-yl)-6-(2-methylpyridin-4-yl)-5H-pyrrolo[3,2-d]pyrimidine]
> 7.00 | > 7.00 | < 4.30 | CNC(=O)CN1CCC(c2ncc3[nH]c(-c4cc(OC)c5ncnn5c4)c(C(C)C)c3n2)CC1 [Example 35, 2-(4-(7-isopropyl-6-(8-methoxy-[1,2,4]triazolo[1,5-a]pyridin-6-yl)-5H-pyrrolo[3,2-d]pyritnidin-2-yl)piperidin-1-yl)-N-methylacetamide]
4.30 to 6.00 | 6.00 to 7.00 | 4.30 to 6.00 | CCc1c(-c2ccc(OC)c(OC)c2)[nH]c2cnc(-c3nnc(CCNC)o3)nc12 [Example 38, 2-(5-(6-(3,4-dimethoxyphenyl)-7-ethyl-5H-pyrrolo[3,2-d]pyrimidin-2-yl)-1,3,4-oxadiazol-2-yl)-N-methylethan-1-amine]
> 7.00 | > 7.00 | 6.00 to 7.00 | COc1cc(-c2[nH]c3cnc(C4CCN(CC#N)CC4)nc3c2C(C)C)cn2ncnc12 [Example 59]
4.30 to 6.00 | 6.00 to 7.00 | 4.30 to 6.00 | CCc1c(-c2ccc(OC)c(OC)c2)[nH]c2cnc(-c3nnc([C@@H]4CCCNC4)o3)nc12 [Example 43, (R)-2-(6-(3,4-dimethoxyphenyl)-7-ethyl-5H-pyrrolo[3,2-d]pyrimidin-2-yl)-5-(piperidin-3-yl)-1,3,4-oxadiazole]
> 7.00 | > 7.00 | 4.30 to 6.00 | COc1cc(-c2[nH]c3cnc(C4CCN(CC(C)(C)O)CC4)nc3c2C(C)C)cn2ncnc12 [Example 15, 1-(4-(7-isopropyl-6-(8-methoxy-[1,2,4]triazolo[1,5-a]pyridin-6-yl)-5H-pyrrolo[3,2-d]pyrimidin-2-yl)piperidin-1-yl)-2-methylpropan-2-ol]
> 7.00 | > 7.00 | 6.00 to 7.00 | COc1ccc(-c2[nH]c3cnc(C4CCNCC4)nc3c2C(C)C)cc1OC [Example 17, 6-(3,4-dimethoxyphenyl)-7-isopropyl-2-(piperidin-4-yl)-5H-pyrrolo[3,2-d]pyrimidine]
4.30 to 6.00 | 4.30 to 6.00 | 4.30 to 6.00 | CCc1c(-c2ccc(OC)c(OC)c2)[nH]c2cnc(-c3nnc(C[C@@H]4CCCN4)o3)nc12 [Example 45, (S)-2-(6-(3,4-dimethoxyphenyl)-7-ethyl-5H-pyrroIo[3,2-d]pyrimidin-2-yl)-5-(pyrrolidin-2-ylmethyl)-1,3,4-oxadiazole]
4.30 to 6.00 | 6.00 to 7.00 | 4.30 to 6.00 | CCc1c(-c2ccc(OC)c(OC)c2)[nH]c2cnc(-c3nnc(CNC)o3)nc12 [Example 42, 1-(5-(6-(3,4-dimethoxyphenyl)-7-ethyl-5H-pyrrolo[3,2-d]pyrimidin-2-yl)-1,3,4-oxadiazol-2-yl)-N-methylmethanamine]
4.30 to 6.00 | 6.00 to 7.00 | 4.30 to 6.00 | CCc1c(-c2ccc(OC)c(OC)c2)[nH]c2cnc(-c3nnc(C[C@H]4CCCN4)o3)nc12 [Example 47, (R)-2-(6-(3,4-dimethoxyphenyl)-7-ethyl-5H-pyrrolo[3,2-d]pyrimidin-2-yl)-5-(pyrrolidin-2-ylmethyl)-1,3,4-oxadiazole]
6.00 to 7.00 | 6.00 to 7.00 | 6.00 to 7.00 | CCc1c(-c2ccc(OC)c(OC)c2)[nH]c2ncc(C3CCNCC3)nc12 [Example 3, 6-(3,4-dimethoxyphenyl)-7-ethyl-2-(piperidin-4-yl)-5H-pyrrolo[2,3-b]pyrazine]
> 7.00 | > 7.00 | 4.30 to 6.00 | Cc1cc(-c2[nH]c3cnc(C4CCN(CC(=O)N(C)C)CC4)nc3c2C(C)C)cn2ncnc12 [Example 29, 2-(4-(7-isopropyl-6-(8-methyl-[1,2,4]triazolo[1,5-a]pyridin-6-yl)-5H-pyrrolo[3,2-d]pyrimidin-2-yl)piperidin-1-yl)-N,N-dimethylacetantide]
6.00 to 7.00 | > 7.00 | 4.30 to 6.00 | CCc1c(-c2ccc(OC)c(OC)c2)[nH]c2cnc(C3CCN(CC(=O)N(C)C)CC3)nc12 [Example 49]
